From US8778894B2, “Luteolin and diosmin/diosmetin as novel STAT3 inhibitors for treating autism” (University of South Florida, priority 2008, dated 2014)

How the values were obtained:
[1] = system: IL-6 induced JAK2 phosphorylation; assay: IL-6 induced JAK2 phosphorylation in N2a and primary neuronal cells, Western blot; format: cell-based, murine; details: IL-6 50 ng/mL, 30 min
Protocol: (§1) Cerebral cortices were isolated from C57BL/6 mouse embryos, between 15 and 17 days in utero. After 15 min of incubation in trypsin (0.25%) at 37° C., individual cortices were mechanically dissociated. Cells were collected after centrifugation at 1200 rpm, resuspended in DMEM supplemented with 10% fetal calf serum, 10% horse serum, uridine ([…]; Sigma) and fluorodeoxyuridine ([…]; Sigma), and plated in 24 well collagen coated culture plates at a density of 2.5×10^5 cells per well.
(§2) N2a (murine neuroblastoma) cells, purchased from the American Type Culture Collection (ATCC, Manassas, Va.) were grown in complete EMEM supplemented with 10% fetal calf serum. Cells were plated in 24 well collagen coating culture plates at a density of 1×10^5 cells per well. After overnight incubation, N2a cells were incubated in neurobasal media supplemented with 3 mM dibutyryl cAMP in preparation for treatment. […]
(§3) Cultured cells were lysed in ice-cold lysis buffer (20 mM Tris, pH 7.5, 150 mM NaCl, 1 mM EDTA, 1 mM EGTA, 1% v/v Triton X-100, 2.5 mM sodium pyrophosphate, 1 mM β-glycerolphosphate, 1 mM Na3VO4, 1 μg/mL leupeptin, 1 mM PMSF) as described previously (Tan et al. 2002). […] Densitometric analysis was conducted using a FluorS Multiimager with Quantity One™ software (Bio-Rad, Hercules, Calif.). […]

[2] = system: IL-6 induced STAT3 phosphorylation (Ser727); assay: IL-6 induced STAT3 phosphorylation in N2a and primary neuronal cells, Western blot; format: cell-based, murine; details: IL-6 50 ng/mL, 30 min
Protocol: as §1, §2, §3

[3] = system: STAT3 activation/phosphorylation induced by IL-6; assay: STAT3 activation induced by IL-6 in cultured neuronal cells (PC12 and N2a), Western blot; format: cell-based; details: dose-dependent
[4] = system: IL-6 induced JAK2 phosphorylation; assay: JAK2 phosphorylation in brain homogenates of IL-6/MIA newborn mice, Western blot; format: in vivo; details: dams IL-6 5 μg i.p. at E12.5; S31-201 4 μg i.p. or diosmin 10 mg/kg/day oral; vs IL-6 only, P<0.005
Protocol: (§4) Cultured cells were lysed in ice-cold lysis buffer (20 mM Tris, pH 7.5, 150 mM NaCl, 1 mM EDTA, 1 mM EGTA, 1% v/v Triton X-100, 2.5 mM sodium pyrophosphate, 1 mM β-glycerolphosphate, 1 mM Na3VO4, 1 μg/mL leupeptin, 1 mM PMSF) as described previously (Tan et al. 2002). Mouse brains were isolated under sterile conditions on ice and placed in ice-cold lysis buffer. Brains were then sonicated on ice for approximately 3 min, allowed to stand for 15 min at 4° C., then centrifuged at 15,000 rpm for 15 min at 4° C. Total protein content was estimated using the BCA protein assay (Pierce Biotechnology) and aliquots corresponding to 100 μg of total protein were electrophoretically separated using 10% Tris gels. Electrophoresed proteins were then transferred to nitrocellulose membranes (Bio-Rad, Richmond, Calif.), washed in Tris buffered saline with 0.1% Tween-20 (TBS/T), and blocked for 1 h at ambient temperature in TBS/T containing 5% (w/v) non-fat dry milk. After blocking, membranes were hybridized overnight at 4° C. with various primary antibodies. Membranes were then washed 3× for 5 min each in TBS/T and incubated for 1 h at ambient temperature with the appropriate HRP-conjugated secondary antibody (1:1000, Pierce Biotechnology). […] Densitometric analysis was conducted using a FluorS Multiimager with Quantity One™ software (Bio-Rad, Hercules, Calif.). […]

[5] = system: IL-6 induced STAT3 phosphorylation; assay: STAT3 phosphorylation in brain homogenates of IL-6/MIA newborn mice, Western blot; format: in vivo; details: dams IL-6 5 μg i.p. at E12.5; S31-201 4 μg i.p. or diosmin 10 mg/kg/day oral; vs IL-6 only, P<0.005
Protocol: as §4

TNF-α [6] = assay: TNF-α ELISA in brain homogenates of IL-6/MIA newborn mice; format: in vivo; details: dams IL-6 5 μg i.p.; S31-201 4 μg i.p. or diosmin 10 mg/kg/day oral; P<0.01
Protocol: (§5) Mouse brain homogenates were prepared as described above and used at a dilution of 1:10 in PBS for these assays. Brain tissue-solubilized cytokines were quantified using commercially available ELISAs that allow for detection of IL-1β, and TNF-α. Cytokine detection was carried out according to the manufacturer's instruction. Total protein content was determined as described above and data represented as pg of cytokine/mg total cellular protein for each cytokine.
(§6) Pro-inflammatory cytokine analysis by ELISA was conducted on these newborn mouse brain homogenates. Data are represented as mean±SD of each cytokine in brain homogenates (pg/mg total protein) from these newborn mice.

IL-1β [7] = assay: IL-1β ELISA in brain homogenates of IL-6/MIA newborn mice; format: in vivo; details: dams IL-6 5 μg i.p.; S31-201 4 μg i.p. or diosmin 10 mg/kg/day oral; P<0.01
Protocol: as §5, §6

IL-6/MIA adult offspring [8] = details: for open-field test, entries into the center: adult offspring of IL-6 treated dams co-treated with S31-201 4 μg i.p. or diosmin 10 mg/kg/day oral, P<0.01
Protocol: Pregnant C57BL/6 mice, embryonic day 2 (E2) were obtained from Jackson Laboratory (Bar Harbor, […].) and individually housed and maintained in an animal facility of the University of South Florida (USF). All subsequent experiments were performed in compliance with protocols approved by the USF Institutional Animal Care and Use Committee. […] Intraperitoneal PBS injection (200 μL) was used as the control for IL-6 administration. Open field (OF)—The OF behavioral analysis is a test of both locomotor activity and emotionality in rodents (Radyushkin et al. 2009). Mice were placed in a 50×50 cm white Plexiglas box brightly lit by fluorescent room lighting and six 60 W incandescent bulbs approximately 1.5 m above the box. Activity was recorded by a ceiling-mounted video camera and analyzed from digital video files either by the automated tracking capabilities of Ethovision or counted using the behavior tracker (version 1.5, www.behaviortracker.com), a software-based event-recorder. The total distance moved and numbers of entries into the center of the arena (central 17 cm square) were determined in a 10 minute session. […] We also treated control mice (non-IL-6 treated) with the STAT3 inhibitor, S31. […] (10 mg/kg/day)]. […] Heightened anxiety and social interaction deficits are hallmarks of schizophrenia and autism. Reluctance to enter the center portion of a well-lit open field is usually taken as a measure of heightened anxiety under mildly stressful conditions (Smith et al., 2007).

IL-6/MIA adult offspring [9] = assay: Social interaction test in IL-6/MIA adult offspring; format: in vivo, mice; details: for social interaction test, sniffing time: maternal S31-201 or diosmin vs IL-6/MIA, P<0.05; for social interaction test, social impairment (preference for the social chamber): maternal co-treatment with S31-201 4 μg i.p. or diosmin 10 mg/kg/day oral, P<0.005
Protocol: Pregnant C57BL/6 mice, embryonic day 2 (E2) were obtained from Jackson Laboratory (Bar Harbor, […].) and individually housed and maintained in an animal facility of the University of South Florida (USF). All subsequent experiments were performed in compliance with protocols approved by the USF Institutional Animal Care and Use Committee. […] Intraperitoneal PBS injection (200 μL) was used as the control for IL-6 administration. Social interaction (SI)—The testing apparatus consisted of a 60×40 cm Plexiglas box divided into three chambers. Mice were able to move between chambers through a small opening (6×6 cm) in the dividers. Plastic cylinders in each of the two side chambers contained the probe mice, and numerous 1 cm holes in the cylinders enabled test and probe mice to contact each other. Test mice were placed in the center chamber, with an overhead camera recording their movements. Mice were allowed 5 min of exploration time in the box, after which an unfamiliar, same-sex probe mouse from the same experimental group was placed in one of two restraining cylinders (Radyushkin et al. 2009). The Ethovision software (Noldus, Leesburg, Va.) program measured time spent in each of the three chambers, and social preference was defined as follows: (% time spent in the social chamber)−(% time spent in the opposite chamber). […] We also treated control mice (non-IL-6 treated) with the STAT3 inhibitor, S31. […] (10 mg/kg/day)]. […] Heightened anxiety and social interaction deficits are hallmarks of schizophrenia and autism. Reluctance to enter the center portion of a well-lit open field is usually taken as a measure of heightened anxiety under mildly stressful conditions (Smith et al., 2007).

TNF-α [10] = assay: TNF-α ELISA in brain homogenates of IL-6/MIA adult offspring; format: in vivo, mice; details: maternal co-treatment with S31-201 or diosmin vs IL-6 only; P<0.05
Protocol: as §5
(§7) At sacrifice, brain homogenates were prepared from offspring of mice treated with IL-6, IL-6/S31-201, IL-6/Diosmin or PBS (control) (n=8, 4 female/4 male). Pro-inflammatory cytokine analysis by ELISA was conducted on these mouse brain homogenates. Data are represented as mean±SD of each cytokine in brain homogenates (pg/mg total protein) from these mice.

IL-1β [11] = assay: IL-1β ELISA in brain homogenates of IL-6/MIA adult offspring; format: in vivo, mice; details: maternal co-treatment with S31-201 or diosmin vs IL-6 only; P<0.05
Protocol: as §5, §7

[12] = system: STAT3 phosphorylation (Ser727); assay: STAT3 phosphorylation in brain homogenates of IL-6/MIA adult offspring, Western blot; format: in vivo, mice; details: maternal co-treatment with S31-201 or diosmin vs IL-6 only; P<0.005
Protocol: as §4

[13] = 500-2,000 mg per day orally for up to one year; cited from earlier work
[14] = after intestinal transformation of diosmin to diosmetin and absorption; cited from earlier work
[15] = dose dependent, N2a and primary neurons

Row | SMILES | concentration at which significant reductions of JAK2 phosphorylation begin [1, 15] | effect on apoprotein level of JAK2 ([1]; luteolin 0-20 μM) | concentration at which significant reductions of STAT3 (Ser727) phosphorylation begin [2, 15] | effect on apoprotein level of STAT3 ([2]; luteolin 0-20 μM) | inhibition of activation/phosphorylation of STAT3 induced by IL-6 [3] | IL-6 induced JAK2 phosphorylation in newborn brain homogenates [4] | IL-6 induced STAT3 phosphorylation in newborn brain homogenates [5] | reduction of the IL-6 induced increase in TNF-α level, newborn brain homogenates (TNF-α [6]) | reduction of the IL-6 induced increase in IL-1β level, newborn brain homogenates (IL-1β [7]) | open-field test, entries into the center (IL-6/MIA adult offspring [8]) | social interaction test, sniffing time (IL-6/MIA adult offspring [9]) | social interaction test, social impairment (preference for the social chamber) (IL-6/MIA adult offspring [9]) | TNF-α cytokine level in adult offspring brain homogenates (TNF-α [10]) | IL-1β cytokine level in adult offspring brain homogenates (IL-1β [11]) | STAT3 phosphorylation in adult offspring brain homogenates [12] | safety and tolerability in clinical trials [13] | open-field behaviour, inhibitor-treated control (non-IL-6 injected) mice vs PBS-treated mice (IL-6/MIA adult offspring [8]; mouse, in vivo) | plasma half-life [14]
1 | O=c1cc(-c2ccc(O)c(O)c2)oc2cc(O)cc(O)c12 [luteolin, 3′,4′,5,7-tetrahydroxyflavone] | 10 µM | did not affect | 10 µM | did not affect | inhibit activation/phosphorylation of STAT3 |  |  |  |  |  |  |  |  |  |  |  |  | 
2 | COc1ccc(-c2cc(=O)c3c(O)cc(O[C@@H]4O[C@H](CO[C@@H]5O[C@@H](C)[C@H](O)[C@@H](O)[C@H]5O)[C@@H](O)[C@H](O)[C@H]4O)cc3o2)cc1O [diosmin] |  |  |  |  | inhibit activation/phosphorylation of STAT3 | significantly reduce | significantly reduce | ~50% | ~50% | entering the center more often than IL-6 treated animals | increase in sniffing compared to IL-6/MIA mice | significantly attenuated | significantly reduces | significantly reduces | significant reduction | excellent safety profile and were well tolerated |  | 
3 | Cc1ccc(S(=O)(=O)OCC(=O)Nc2ccc(C(=O)O)c(O)c2)cc1 [S31-201] |  |  |  |  |  | significantly reduce | significantly reduce | ~50% | ~50% | entering the center more often than IL-6 treated animals | increase in sniffing compared to IL-6/MIA mice | significantly attenuated | significantly reduces | significantly reduces | significant reduction |  | did not find a significance | 
4 | COc1ccc(-c2cc(=O)c3c(O)cc(O)cc3o2)cc1O [diosmetin] |  |  |  |  |  |  |  |  |  |  |  |  |  |  |  |  |  | 26 to 43 h
